Patent US9504738B2, “Immunogenic epitopes, peptidomimetics, and anti-peptide antibodies, and methods of their use” (Ohio State Innovation Foundation, priority 2010, dated 2016)
Blank lines part the entries; values can stand above or below the compound they belong to. Ends that are not written are not given here.

How the values were obtained:
HUVEC = test: Scratch wound assay (HUVEC migration); format: cell-based, human; settings: stimulated with 50 ng/ml rhVEGF, 16 h
Procedure: Scratch Wound Assay. HUVEC were cultured on 0.1% gelatin coated 24-well plates. Confluent cells were incubated overnight with starving media, then they were scraped using sterilized 200-μl pipette tips and stimulated with 50 ng/ml of rhVEGF with or without VEGF mimic peptides for 16 h at 37° C. Cells were fixed and images were captured immediately at 40× magnification from light microscopy and cells that migrated to the scraped area were counted using imageJ software.
VEGF mimic peptides inhibit cell migration in a Scratch Wound Assay. New blood vessel formation requires that the endothelial cells migrate towards the sources of growth factor. […] We used the scratch wound assay with HUVEC to observe the ability of the VEGF mimic peptides in inhibiting endothelial cell migration. […] Growth conditions (medium supplemented with 20% FBS and endothelial cell growth supplements).

VEGFR-2 = molecular target: T1, VEGFR-2 (Homo sapiens, UniProt P35968); test: VEGFR-2 phosphorylation in 293/KDR cells, quantified with Human Phospho-VEGF R2/KDR DuoSet IC kit; format: cell-based; settings: 293/KDR cells stimulated with rhVEGF; control (only rhVEGF) taken as 100%
T1 construct: host or cells: 293/KDR cells
Procedure: 293/KDR cells (5×10^5 cells/well) were seeded on 6-well plates in DMEM medium supplemented with 10% FBS. After overnight incubation in starving medium (no FBS) cells were stimulated with rhVEGF for 5 min. Cells were washed in cold PBS supplemented with 1 mM sodium orthovanadate and harvested into RIPA lysis buffer (Santa Cruz Biotechnology, Santa Cruz, Calif.) and incubated on ice for 30 min and cell lysate was collected after centrifugation at 13000 rpm for 10 min. Cell lysate was kept at −80° C. until used for Western blotting detecting phosphoro-KDR and total KDR as described above.
Conformational VEGF mimic peptide prevents VEGFR-2 phosphorylation. VEGFR-2 (also known as […] or KDR) has been characterized as a tyrosine receptor type III. VEGFR-2 activation is promoted by dimerization upon VEGF binding. VEGFR-2 contains several tyrosine residues that can be phosphorylated, triggering several pathways such as proliferation, migration and survival in the endothelial cells. […] All three VEGF mimic peptides were able to decrease the level of receptor phosphorylation (FIG. 5); however, the inhibitory effect was unable to be quantified, due to the limited detection of VEGFR-2 in the Western blotting. […] The percentage of inhibition was calculated assuming the phosphorylation level of control (only rhVEGF) was 100% and the results are represented in FIG. 6B.

[1] = molecular target: T2, extracellular domain of VEGFR-2 (KDR-Fc) (Homo sapiens, UniProt P35968); test: Surface plasmon resonance (BIAcore 3000): KDR-Fc injected over immobilized VEGF mimic peptides; settings: peptide immobilized on CM5 chip, 1:1 (Langmuir) model, read-out: equilibrium binding constant (KD), binding affinity
T2 construct: the extracellular domain of VEGFR-2(KDR-Fc) was injected as ligand; Fc; purchased R&D System
Procedure: Surface Plasma Resonance. Binding assays were performed using a Biacore 3000 instrument (Pharmacia Bio-sensor, Uppsala, Sweden). The experiments were performed at room temperature using HBS-EP buffer (25 mM HEPES, pH 7.4, […], 3.4 mM EDTA, and 0.005% surfactant P20). Peptides were coupled onto CM5 chip surfaces at 10 μL/min using a standard amine coupling protocol with EDC (N-ethyl-N′-[dimethylaminopropyl]carbodiimide)/NHS (N-hydroxysuccinimide). KDR-Fc (R&D System) at several concentrations in HBS-EP buffer. Was injected at a flow rate of 10 μL/min. Data analysis was performed with BIAsimulation software version 3.1 (Pharmacia Biosensor). […] To obtain measurement of anti-peptides binding affinities similar a experiment was carried out, but rhVEGF was immobilized onto CM5 chip surface and anti-peptides were injected at several concentrations.
Conformational VEGF mimic peptide binds to VEGFR-2. Binding assay was carried out using BIAcore 3000 instrument. Designed VEGF mimic peptide VEGF-P3 (NC) and (CYC) were immobilized onto chip CM5 and the extracellular domain of VEGFR-2(KDR-Fc) was injected as ligand. […] Global analysis was performed with data points fitting to a simple 1:1 (Langmuir) binding model. The equilibrium binding constant (KD) takes Ka and Kd values in consideration and represents the binding affinity. […]

[2] = tested on: TS/A cells (HER-2 negative); test: Proliferation assay (MTT) of TS/A cells in presence of HRG; format: cell-based, mouse; settings: HER-2 negative cell line
Procedure: Proliferation assay. BT-474, SK-BR-3, MDA-468 and TS/A cells (1×10^4 were plated in 96-well flat-bottom plates overnight. Growth medium was replaced with low sera (1% FCS) medium and the cells were incubated overnight. Media were removed from the wells and replaced with low sera medium containing HER-2 and VEGF mimic peptides at concentrations ranging from 25-150 ug/ml and plates were incubated an additional 1 h at 37° C. before adding 10 ng/ml HRG in 1% medium. Plates were incubated for an additional 72 h at 37° C. before adding MTT (5 mg/ml) to each well. Plates were incubated 2 h at 37° C., and 1000 of extraction buffer (20% SDS, 50% dimethylformamide (pH 4.7)) was added to each well. Plates incubated overnight at 37° C. and read on an ELISA reader at 570 nm with 655 nm background subtraction Inhibition percentage was calculated as 100%×(Untreated cells-Peptide treated cells)/(Untreated cells).
Antiproliferative effects of peptides. The antiproliferative effects of the peptides were tested using four different cell lines (Bt-474 and SK-BR-3: HER-2^high, MDA-468: HER-2^low and TS/A: HER-2^negative) (FIGS. 13A-13D) in the presence of HRG to activate the HER-3 receptor. […] The cells were incubated with the peptides before being exposed to HRG.

HER-2 = molecular target: T3, HER-2 (Homo sapiens, UniProt P04626); test: HER-2 phosphorylation assay in BT-474 cells, peptides (Duoset IC human phospho-ErbB2); format: cell-based; settings: peptides then HRG 10 min
T3 construct: The human breast tumor cell lines BT-474 were purchased from American Type Culture Collection; host or cells: BT-474
Procedure: Phosphorylation assay. 1×10^6 BT-474 cells were plated in each well of a six well plate and incubated overnight at 37° C. Culture medium was removed and the cell layer washed once with PBS low score (1% FCS). Culture medium was added to the wells and plates incubated overnight. Cells were washed and 50 ug of peptides, anti-peptide Abs and controls in binding buffer (0.2% w/v BSA, RPMI 1640 medium with 10 mM HEPES (pH 7.2) was added to the wells and incubated at room temperature for 1 h. HRG (5 nM/well) was added and the incubation continued for 10 min. Binding buffer was removed and the cell layer washed once with PBS before adding 1 ml of RIPA lysis buffer (Santa Cruz Biotechnology, Santa Cruz, Calif.). Plates were rocked at 4° C. for 2 h. Lysates were removed, spun at 13000×g and supernatants collected. Protein concentration of each sample was measured by Coomassie plus protein assay reagent kit and lysates were stored at −80° C. Phosphorylation was determined by Duoset IC for human phosphor-ErbB2 according to the manufacturer's directions (RSD Systems).
Peptide inhibition of Phosphorylation. The main mode of action of Pertuzumab is to inhibit phosphorylation. This is due to the fact that it sterically blocks the dimerization domain of HER-2 thereby preventing the formation of dimers with other HER receptors and thus interrupting downstream signaling. […]

[3] = Active immunization of rabbits, antibody titers by ELISA; format: in vivo, rabbit; settings: outbred rabbits, MVF chimeric peptide
Procedure: Active immunization and Ab purification. Mice and rabbits were immunized subcutaneously at multiple sites with a total of 1 mg (rabbits) or 100 μg (mice) of peptide dissolved in ddH2O emulsified (1:1) in Montanide ISA720 vehicle (Seppic) with 100 μg of N-acetylglucosamine-3-yl-acetyl-1-alanyl-d-isoglutamine (nor-MDP). Balb/c mice. Rabbits and mice were boosted with the respective doses at 3 week intervals. Rabbit blood was collected via the central auricular artery and sera tested for antibody titers. Anti-peptide antibodies were purified by affinity chromatography using a Protein A/G column (Pierce) from high titer antibody sera.
ELISA. Antibody titers were determined as previously described and it is defined as the reciprocal of the highest serum dilution with an absorbance of 0.2 or greater after subtracting the background.
Antigenicity and Immunogenicity of Peptides. Earlier studies in our lab have shown that the MVF-HER-2-266 was highly immunogenic in both rabbits and mice. […] We had to do up to six immunizations with the D-amino acid peptide before we could obtain higher abs titers while with the L-amino acids only four immunization are enough to produce higher titers. We therefore used the abs raised against these peptides to test their effects on cancer cells in vitro.

T2 sequence (P35968 20-764 limits assumed): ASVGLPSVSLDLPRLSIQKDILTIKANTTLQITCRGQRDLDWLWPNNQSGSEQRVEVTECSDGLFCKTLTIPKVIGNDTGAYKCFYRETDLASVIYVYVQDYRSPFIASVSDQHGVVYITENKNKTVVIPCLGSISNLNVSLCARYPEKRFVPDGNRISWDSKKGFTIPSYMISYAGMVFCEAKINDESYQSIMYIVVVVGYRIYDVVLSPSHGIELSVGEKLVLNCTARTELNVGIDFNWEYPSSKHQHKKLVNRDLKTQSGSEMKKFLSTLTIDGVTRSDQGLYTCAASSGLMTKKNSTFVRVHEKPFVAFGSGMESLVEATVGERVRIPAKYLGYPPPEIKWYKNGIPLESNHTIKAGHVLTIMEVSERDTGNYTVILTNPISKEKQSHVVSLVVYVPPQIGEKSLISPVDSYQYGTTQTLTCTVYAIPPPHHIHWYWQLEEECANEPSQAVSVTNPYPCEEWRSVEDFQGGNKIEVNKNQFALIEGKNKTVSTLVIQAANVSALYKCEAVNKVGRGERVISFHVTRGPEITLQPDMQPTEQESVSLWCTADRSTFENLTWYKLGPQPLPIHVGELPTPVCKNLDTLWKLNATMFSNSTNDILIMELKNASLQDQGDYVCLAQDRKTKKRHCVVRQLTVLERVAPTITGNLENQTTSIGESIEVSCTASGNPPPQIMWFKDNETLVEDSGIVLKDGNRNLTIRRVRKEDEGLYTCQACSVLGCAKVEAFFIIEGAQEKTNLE
T1 sequence (P35968 20-1356): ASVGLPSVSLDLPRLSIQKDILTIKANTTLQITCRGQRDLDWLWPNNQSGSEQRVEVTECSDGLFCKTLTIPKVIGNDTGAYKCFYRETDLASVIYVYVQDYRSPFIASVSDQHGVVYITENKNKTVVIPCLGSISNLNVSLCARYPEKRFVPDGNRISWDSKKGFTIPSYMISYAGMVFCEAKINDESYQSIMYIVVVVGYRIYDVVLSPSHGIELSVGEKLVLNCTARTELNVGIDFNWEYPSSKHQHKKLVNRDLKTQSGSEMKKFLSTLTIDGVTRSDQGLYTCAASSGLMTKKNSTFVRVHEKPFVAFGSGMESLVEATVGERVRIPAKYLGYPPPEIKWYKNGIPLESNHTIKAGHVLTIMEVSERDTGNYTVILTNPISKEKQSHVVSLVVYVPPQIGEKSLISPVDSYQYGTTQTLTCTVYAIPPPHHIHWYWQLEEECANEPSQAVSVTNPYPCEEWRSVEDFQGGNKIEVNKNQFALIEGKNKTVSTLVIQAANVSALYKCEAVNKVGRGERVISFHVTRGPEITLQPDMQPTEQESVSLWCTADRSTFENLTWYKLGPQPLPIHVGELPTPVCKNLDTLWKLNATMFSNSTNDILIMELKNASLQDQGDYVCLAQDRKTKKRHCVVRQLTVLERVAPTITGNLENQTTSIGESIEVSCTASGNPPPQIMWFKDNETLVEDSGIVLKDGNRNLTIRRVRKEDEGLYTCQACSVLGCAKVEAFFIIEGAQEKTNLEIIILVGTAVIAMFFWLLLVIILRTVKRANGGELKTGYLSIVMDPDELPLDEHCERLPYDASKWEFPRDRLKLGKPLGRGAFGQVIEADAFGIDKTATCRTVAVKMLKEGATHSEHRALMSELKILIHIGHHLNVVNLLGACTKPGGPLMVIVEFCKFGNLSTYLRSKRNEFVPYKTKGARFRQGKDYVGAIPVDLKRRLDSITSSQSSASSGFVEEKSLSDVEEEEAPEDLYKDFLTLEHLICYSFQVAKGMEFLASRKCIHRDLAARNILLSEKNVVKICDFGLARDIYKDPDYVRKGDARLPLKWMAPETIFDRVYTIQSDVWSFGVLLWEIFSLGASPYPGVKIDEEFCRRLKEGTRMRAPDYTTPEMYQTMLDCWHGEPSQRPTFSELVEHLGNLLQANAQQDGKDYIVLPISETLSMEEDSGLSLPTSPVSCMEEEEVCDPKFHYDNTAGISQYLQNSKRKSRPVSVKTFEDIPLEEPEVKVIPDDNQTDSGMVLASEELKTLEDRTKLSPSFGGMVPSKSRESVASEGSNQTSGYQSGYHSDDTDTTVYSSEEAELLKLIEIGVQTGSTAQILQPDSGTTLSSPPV

Compound: CC(C)c1cc(/C=C(\C#N)C(=O)NCCCc2ccccc2)cc(C(C)C)c1O [SU1498]
- inhibition of HUVEC migration (HUVEC): approximately 50%

Compound: ITMQIMRIKPHQGQHIGEMSF [VEGF 102-122]
- inhibition of VEGFR-2 phosphorylation (VEGFR-2): 4%
- Kd [1]: 45 nM

Compound: LHCPALVTYNTDTFESMPNPEGRYTFGASCV [HER-2-266-296]
- antiproliferative effect on TS/A cells [2]: inhibitory effects
- inhibition rate of HER-2 phosphorylation (HER-2): 38%

- inhibition rate of HER-2 phosphorylation (HER-2): 39%
Compound: NH2-D[FSMECIMIKPHQGQHIGCQMTI]-COOH [VEGF-P4-CYC]
- immunogenicity (antibody titers) [3]: immunogenic
